Data reported in patent publication US10857151B1, “Treatment of female genital schistosomiasis” (Villya LLC, priority 2020, dated 2020).

Assays:
[1] = test system: blood-borne infection of schistosomiasis; experiment: Blood test for schistosomiasis using Schisto POC-CCA in FGS after treatment; format: in vivo, human; conditions: female with FGS; three doses of 20 mg/kg oral praziquantel; after two weeks
[2] = test system: schistosomiasis worms in the vagina; experiment: Microscope observation of vaginal swab sample slides for schistosomiasis worms in FGS after treatment; format: in vivo, human; conditions: after two weeks
Source text: A single dose of Praziquantel as described in Example 1 was vaginally inserted into the subject.

O=C(C1CCCCC1)N1CC(=O)N2CCc3ccccc3C2C1 (stereo not drawn) [praziquantel]
blood retested for schistosomiasis [1]: negative for schistosomiasis | observation of vaginal sample from brushing with a swab on microscope slides ([2]; female with FGS, three doses of 20 mg/kg oral praziquantel): live schistosomiasis worms still in the vagina | slides observed under the microscope for schistosomiasis worms ([2]; single dose vaginally inserted as in Example 1 (600 mg praziquantel in 2.5 g K-Y Jelly), same subject after oral treatment): negative for schistosomiasis worms
